# Reference: patent US20140066438A1, “DOPAMINE RECEPTOR D2 ANTAGONIST FOR PREVENTION AND TREATMENT OF FLAVIVIRUS INFECTION” (Academia Sinica, priority 2012, published 2014)
# Like-named read-outs stand apart in the source and are kept apart here.
# Legend:
# DENV-1 = assay: Antiviral assay against DENV-1 (NS3 Western blot); conditions: HEK293T, MOI=0.1, 2 days
# DENV-2 NGC-N strain = assay: Animal study: DENV-2 challenge of Stat1-deficient mice; format: in vivo
# Procedure: Stat1^−/− mice were challenged with 5×10^4 PFU/mouse of DENV-2 NGC-N strain. The protective effect of PCZ dimaleate (A) and PCZ dimethanesulfonate (Novamin Injection) (B) were tested with immediate and 6-h delay treatment. (A) The mice received phosphate buffered saline (PBS; vehicle control, n=10), 5 mg (n=8) or 1 mg (n=8) PCZ-dimaleate/kg body weight/i.p. at the time of infection (immediate treatment), or 5 mg PCZ-dimaleate/kg body weight/i.p. at 6 h post-infection (6-h delay treatment, n=8). Mice received follow-up treatment with PBS (vehicle control) or half the dose of PCZ-dimaleate orally every 12 h until day-10 post infection. […] The days with treatment are marked by arrows. Mice survival was checked daily and the data are presented as percentage of survival.
# The mouse experiments were approved and performed in accordance with the guidelines of the Academia Sinica Institutional Animal Care and Utilization Committee. Groups of 5-week-old Stat1-deficient (SaT1^−/−) mice were challenged intraperitoneally (i.p.) with 5×10^4 plaque-forming units (PFU)/mouse of DENV-2 NGC-N strain and simultaneously injected with 30 μl PBS intracranially (i.c.) into the right hemisphere of the brain. To study the efficacy of PCZ-dimaleate administered mainly by an oral route, mice were divided into 4 groups for treatment: PBS (vehicle control); 5 or 1 mg of PCZ/kg body weight/i.p. at the time of infection (immediate treatment); or 5 mg of PCZ/kg body weight/i.p. at 6 h post-infection (6-h delay treatment). Thereafter, twice a day, mice received a half dose of the first treatment orally with PBS (vehicle control) or 2.5 or 0.5 mg of PCZ/kg body weight/oral/12 h up to day 10 post-infection. […] Thereafter, every 2 days, mice received PBS or the same dose of PCZ up to day 10 post-infection. The mice were checked daily for mortality.
# DENV-2 [1] = assay: Cell-based antiviral assay against DENV-2 (IFA, immunoblotting of NS3, plaque-forming assay); design: species or system Dengue virus serotype 2 (PL046 strain); conditions: for EC50: read-out: half-maximal effective concentration (EC50) against DENV-2 infection
# Procedure: (A) PCZ cytotoxicity test. HEK293T cells were treated with solvent control or the indicated concentrations of PCZ for 24 h. AlamarBlue, XTT, and LDH assays were carried out to determine cell viability, cell proliferation, and cytotoxicity, respectively. Data are mean and standard deviation (SD) of 3 independent experiments. […] Representative immunofluorescence microscopy (400× magnification) of cells immunostained for DENV-2 NS3 (green) and DAPI for nuclei (blue). […] Plaque-forming assay of viral progeny production (plaque forming unit, PFU/ml) in culture supernatants of cells in panel C (D). Data are mean and SI) of 2 independent experiments. *P<0.05.
# (A) PCZ cytotoxicity test. HEK293T cells were treated with solvent control or the indicated concentrations of PCZ (5, 10, 15, 20 and 25 μM). AlamarBlue, XTT and LDH assays were carried out to determine cell viability, cell proliferation, and cytotoxicity, respectively. […] (D) Plaque-forming assay of viral progeny production (plaque forming unit, PFU/ml): Data are mean and SD of two independent experiments. **P<0.01. […] BHK-21 cells (E) and N18 cells (F) infected with DENV-2 (MOI=0.1) were treated with or without PCZ for 2 days and 1 day, respectively.
# HEK293T cells were infected with DENV-2 (MOI=0.1) with or without haloperidol for 1 day.
# Monolayers of cells (HEK293T, BHK-21 and N18) in 6- or 12-well plates were infected with DENV-2 at the indicated multiplicity of infection (MOI). Virus was adsorbed for 2 h with the indicated concentrations of PCZ, then cells were washed thoroughly to remove unbound viruses and incubated for an additional 24 to 48 h with or without PCZ. The antiviral effect of PCZ was evaluated by immunofluorescence assay (IFA), immunoblotting and plaque-forming assay.
# Cells were fixed with 4% PFA and permeabilized with 0.5% Triton X-100 in PBS.
# [2] = tested on: clathrin-dependent endocytosis; conditions: cited from earlier work
# clathrin = assay: Clathrin distribution during viral entry assay (confocal imaging); format: cell-based, human; conditions: HEK293 cells, PCZ 20 and 30 μM, compared to solvent-treated cells
# Procedure: Cells were fixed with 4% PFA and permeabilized with 0.5% Triton X-100 in PBS. After a blocking with 5% skim milk in PBS, DENV protein expression was detected in cells incubated with mouse anti-DENV-2 NS3 antibody (49), then Alexa Fluor-488-conjugated anti-mouse secondary antibody (Molecular Probes) for 1 h at room temperature. The nuclei were stained with DAPI or Hoechst (Molecular Probes). Cells were examined under an inverted fluorescence microscope (Olympus 1X71). For confocal microcopy, cells were seeded on coverslips in 24-well culture plates. After virus absorption and treatment, cells were extensively washed with cold washing buffer and PBS, then fixed with cold 4% PFA. Cells were washed twice with cold 10 mM glycine solution, then PBS. For clathrin staining, cells were permeabilized with 0.5% Triton X-100 in PBS and blocked with 5% BSA in PBS. Cells were stained with mouse anti-clathrin heavy chain (X22) (Pierce, MA1-065), then anti-mouse Alexa Fluor-568-conjugated secondary antibody (Molecular Probes). The coverslip was mounted onto a slide and examined under confocal laser scanning microscope (ZEISS LSM 700).
# DENV-2 [3] = assay: D2R dependence of PCZ inhibition of DENV-2 binding in N18, shLacZ-N18 and shD2R-N18 cells (NS3 Western blot); format: cell-based, Dengue virus serotype 2
# Procedure: The lentivirus vector pLKO.1 carrying a short hairpin RNA (shRNA) targeting the mouse dopamine D2 receptor (5′-[…]-3′, SEQ ID NO: 1) or LacZ (5′-[…]-3′, SEQ ID NO: 2) from the Taiwan National RNAi Core Facility was cotransfected with pMD.G and pCMVΔR8.91 into HEK293T cells by use of Lipofectamine 2000 (INVITROGEN™). The lentiviruses were harvested from culture supernatants and concentrated by ultracentrifugation at 35,000 rpm in a Beckman SW41 rotor for 3.5 h at 4° C. The viral pellets were resuspended and used to transduce N18 cells. The D2R-deficient N18 cells (shD2R-N18) and LacZ-control cells (shLacZ-N18) were selected with puromycin (5 μg/ml).
# DENV-2 [4] = assay: Virus binding assay (confocal microscopy, plaque-forming assay of cell-bound virus)
# [5] = mice, cited from earlier work
# DENV-2 [6] = assay: Virus entry assay (confocal microscopy, plaque-forming assay of internalized virus); format: cell-based, Dengue virus serotype 2
# Procedure: Solvent control or PCZ (15 and 20 μM) was added 15 min before the end of virus adsorption. After a washing with PBS, cells were then shifted to 37° C. for an additional 1 h incubation. Live-cell staining was performed before cell fixation to label the cell membrane with CellMask (red) and nuclei with Hoechst (blue). […] (B) Plaque-forming assay of internalized DENV-2. […] After a washing with PBS, cells were shifted to 37° C. for an additional 1 h. Cells were physically destroyed to release the internalized DENV-2 and internalized virus was quantified by plaque-forming assays.
# At 15 min before the end of virus adsorption, PCZ was added to the cell cultures. Cells were gently washed once with cold PBS, then were shifted to a 37° C. CO2 incubator for an additional 1 h to allow virus entry with or without PCZ. […] Cells were washed 3 times with cold washing buffer and once with cold PBS, then were fixed with 4% PFA for 10 min on ice. […] Level of virus titers was determined by plaque-forming assay.
# HCV = conditions: cell-based screening; cited from earlier work
# DENV-2 replicon = DENV-2 replicon dual luciferase assay; format: cell-based, Dengue virus serotype 2; conditions: HEK293T, PCZ 10 μM applied 5 h post-transfection
# Procedure: DENV-2 replicon was constructed to contain the SP6 promoter upstream of a Renilla luciferase gene flanked by the DENV 5′ UTR plus a portion of the core gene in the 5′ end; portions of the envelope gene, full length of non-structural genes and 3′ UTR in the 3′ end. In vitro transcription was performed to generate the replicon RNA. HEK293T cells were co-transfected with replicon RNA and control firefly luciferase RNA. PCZ (10 μM) was applied to the transfected cells at 5 h post-transfection. Cells were then harvested at the indicated times for dual luciferase assays. Data are mean and SD of relative renilla luciferase to firefly luciferase from two independent experiments.
# [7] = tested on: Japanese encephalitis virus (JEV); assay: Antiviral assay against JEV (NS3 Western blot); format: cell-based; conditions: BHK-21 cells, MOI=0.1, 2 days
# [8] = target: mouse dopamine D2 receptor (mouse) (UniProt P61168)
# [9] = 2 mg PCZ/kg body weight/2 days i.p., immediate treatment
# mouse dopamine D2 receptor (mouse), sequence (P61168 other isoform, or with tags, fused parts or gaps): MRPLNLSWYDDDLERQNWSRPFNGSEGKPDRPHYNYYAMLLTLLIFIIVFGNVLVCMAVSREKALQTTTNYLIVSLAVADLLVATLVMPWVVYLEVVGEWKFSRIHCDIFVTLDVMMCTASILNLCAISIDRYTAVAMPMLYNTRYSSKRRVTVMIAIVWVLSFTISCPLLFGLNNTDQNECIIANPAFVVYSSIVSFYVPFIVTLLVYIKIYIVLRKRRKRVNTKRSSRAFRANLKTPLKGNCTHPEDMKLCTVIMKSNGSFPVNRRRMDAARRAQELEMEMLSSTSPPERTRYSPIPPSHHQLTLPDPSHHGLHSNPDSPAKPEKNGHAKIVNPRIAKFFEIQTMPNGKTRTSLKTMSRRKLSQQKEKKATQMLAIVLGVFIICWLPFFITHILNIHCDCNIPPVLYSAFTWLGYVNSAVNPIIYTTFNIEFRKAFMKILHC
molecule,measurement,setting,value
prochlorperazine dimethanesulfonate [PCZ-Novamin],DENV-1 replication (NS3 Western blot),DENV-1,reduced DENV-1 replication
same,DENV-2-induced lethality timing,DENV-2 NGC-N strain; [9],slightly delayed
same,overall survival,DENV-2 NGC-N strain; [9],20%
same,protection against DENV-2 challenge after 10 days of infection,"DENV-2 NGC-N strain; 4 mg PCZ/kg body weight/2 days i.p., immediate treatment",completely protected
same,overall survival,"DENV-2 NGC-N strain; 4 mg PCZ/kg/2 days i.p., immediate treatment",40%
same,overall survival and mortality timing,"DENV-2 NGC-N strain; 4 mg kg body weight/2 days i.p., from 6 h post-infection",did not improve the overall survival but delayed the mortality
same,mice surviving the DENV-2 challenge,"DENV-2 NGC-N strain; 8 mg PCZ/kg body weight/2 days i.p., from 6 h post-infection",40%
same,protection against DENV-2 challenge after 10 days of infection,"DENV-2 NGC-N strain; 8 mg PCZ/kg body weight/2 days i.p., immediate treatment",completely protected
same,state of mice after treatment stopped at day 10 post-infection,"DENV-2 NGC-N strain; 8 mg PCZ/kg/2 days i.p., immediate treatment",remained healthy
same,protein expression of viral NS3,"DENV-2 [1]; DENV-2-infected HEK293T cells, IFA and Western blot",dose-dependently reduced
same,EC50,"DENV-2 [1]; HEK293T cells, calculated by a published method",88.4 nM
same,viral progeny production by plaque-forming assay,"DENV-2 [1]; HEK293T, DENV-2 MOI=1, 24 h",significantly reduced viral progeny production
O=C(CCCN1CCC(O)(c2ccc(Cl)cc2)CC1)c1ccc(F)cc1 [haloperidol],antiviral activity against DENV-2 infection (NS3 Western blot),"DENV-2 [1]; HEK293T, MOI=0.1, 1 day",showed antiviral activity against DENV-2 infection
CN(C)CCCN1c2ccccc2Sc2ccc(Cl)cc21 [Chlorpromazine],clathrin-dependent endocytosis,[2],inhibits clathrin-dependent endocytosis
"CN1CCN(CCCN2c3ccccc3Sc3ccc(Cl)cc32)CC1 [PCZ, prochlorperazine]",cellular clathrin distribution,clathrin,showed a distinct clathrin distribution
same,antiviral effect of PCZ given during binding (NS3),DENV-2 [3]; N18 cells,noted
same,antiviral effect of PCZ given during binding (NS3),DENV-2 [3]; shD2R-N18 cells (D2R-deficient),not
same,antiviral effect of PCZ given during binding (NS3),DENV-2 [3]; shLacZ-N18 cells (control knockdown),noted
same,DENV-2 binding quantified by plaque forming assay,"DENV-2 [4]; A549 cells, MOI=5",dose-dependently reduced
same,levels of DENV-2 bound to the cell surface (confocal imaging),"DENV-2 [4]; HEK293T, PCZ 1 h before and during virus adsorption at 4° C.",reduced the levels of DENV-2 bound to the cell surface
same,protection of DENV-2 challenge mice,DENV-2 NGC-N strain; oral administration at 5 μg/gram body weight daily,completely protected
same,LD50,[5]; i.p. injection,191 mg/kg body weight
same,LD50,[5]; oral route,400 mg/kg body weight
same,levels of DENV-2 internalization quantified by plaque forming assay,"DENV-2 [6]; BHK-21 cells, MOI=5",significantly reduced
same,amounts of DENV-2 in the intracellular compartment (confocal microscopy),"DENV-2 [6]; HEK293T, PCZ 15 and 20 μM, 1 h at 37° C.",greatly reduced
same,anti-HCV activity,HCV,showed anti-HCV activity
same,relative renilla luciferase to firefly luciferase (DENV-2 translation and RNA replication),DENV-2 replicon,No significant difference
same,EC50,"DENV-2 [1]; Dengue virus, DENV2, HEK-293T",88.4 nM
"CN1CCN(CCCN2c3ccccc3Sc3ccc(Cl)cc32)CC1 [PCZ-dimaleate, Prochlorperazine dimaleate]",animal mortality timing,"DENV-2 NGC-N strain; 1 mg PCZ/kg body weight/day, immediate treatment",delayed animal mortality
same,overall animal survival,"DENV-2 NGC-N strain; 1 mg PCZ/kg body weight/day, immediate treatment, first i.p. then oral",50%
same,death timing,"DENV-2 NGC-N strain; 5 mg PCZ/kg body weight, 6-h delay treatment",delayed death
same,overall survival,"DENV-2 NGC-N strain; 5 mg PCZ/kg body weight, 6-h delay treatment, 10 days",50%
same,protection against death,"DENV-2 NGC-N strain; 5 mg/kg body weight/day, immediate treatment, first i.p. then oral, 10 days",completely protected against death
same,JEV infection (NS3 Western blot),[7],inhibits Japanese encephalitis virus (JEV) infection
same,antiviral effect against DENV-2 infection (NS3 Western blot),"DENV-2 [1]; BHK-21 cells, MOI=0.1, 2 days",shows antiviral effect against DENV-2 infection
same,antiviral activity against DENV-2 infection,"DENV-2 [1]; HEK293T, MOI=0.1, PCZ 5, 10 and 15 μM, 2 days",exhibits antiviral activity against DENV-2 infection
same,antiviral effect against DENV-2 infection (NS3 Western blot),"DENV-2 [1]; N18 cells, MOI=0.1, 1 day",shows antiviral effect against DENV-2 infection
"DENV-2 PL046 strain (dengue virus serotype 2), whole virion",fold lower cell-bound virus on D2R-knockdown cells than on controls,[8],6 times
